Laboratory results reported in patent publication US11753407B2, “Compounds for treating spinal muscular atrophy” (PTC Therapeutics, Inc., priority 2012, dated 2023).

Columns and labels:
[1] = system: Smn protein in SMA patient fibroblast cells (GM03813); experiment: Smn protein assay in cultured cells (SMN HTRF); assay type: cell-based, human; settings: SMA patient fibroblast cells, 48 hours; for EC1.5x for Smn protein expression: 7-point concentration curve, SMN HTRF, concentration producing 1.5 times Smn protein vs DMSO vehicle control; for maximum fold (Fold) increase of Smn protein: 7-point concentration data, fold relative to vehicle control
Method in brief: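 Smn protein quantified by HTRF with anti-SMN d2/kryptate pair, 665/620 nm ratio blank-corrected, in RIPA lysates of GM03813 fibroblasts after 48 h compound exposure (7 concentrations, 3.16-fold steps, triplicates). Values: concentration producing 1.5× vehicle Smn level, and maximal fold increase.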

[2] = system: SMN2 minigene mRNA (SMN2-A minigene) in HEK293H cells; experiment: SMN2 minigene mRNA splicing RT-qPCR assay in cultured cells; assay type: cell-based, human; settings: Homo sapiens, HEK293-H; concentration increasing full length SMN2 mRNA 1.5-fold relative to vehicle-treated cells; HEK293H cells with SMN2-A minigene, 24 hours, 7-point concentration data; read-out: EC1.5x for production of full length SMN2 mRNA
Method in brief: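 EC1.5× = concentration raising full-length SMN2 minigene mRNA 1.5-fold over vehicle, from 7-point curves in duplicate. Stably transfected HEK293H cells exposed 24 h at 37 °C; lysates assayed by multiplex RT-qPCR, minigene FL signal normalized to GAPDH via modified ΔΔCt.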

SMILES	melting point [°C]	EC1.5x for Smn protein expression [1]	maximum fold (Fold) increase of Smn protein [1]	EC (1.5-fold increase) [2] [µM]
Cc1cn2nc(-c3cc(=O)n4cc(C5CCN(C6COC6)CC5)ccc4n3)cc2c(C)n1 [Compound 600, 2-(4,6-dimethylpyrazolo[1,5-a]pyrazin-2-yl)-7-[1-(oxetan-3-yl)piperidin-4-yl]-4H-pyrido[1,2-a]pyrimidin-4-one]	150 to 152	** (an EC1.5× between >1 μM and ≤3 μM is indicated by two stars (**))	**** (a fold increase between >1.5 and ≤1.65 is indicated by four stars (****))	0.1 to 0.3
CCN1CCN(c2ccc3nc(-c4cc5cc(C)nc(C)c5o4)cc(=O)n3c2)CC1 [Compound 601, 2-(5,7-dimethylfuro[2,3-c]pyridin-2-yl)-7-(4-ethylpiperazin-1-yl)-4H-pyrido[1,2-a]pyrimidin-4-one]	202 to 204	*** (an EC1.5× between >0.3 μM and ≤1 μM is indicated by three stars (***))	**** (a fold increase between >1.5 and ≤1.65 is indicated by four stars (****))	< 0.1
Cc1cn2nc(-c3cc(=O)n4cc(N5CCC6C(CCN6C)C5)ccc4n3)cc2c(C)n1 (stereo not shown) [Compound 602, 2-(4,6-dimethylpyrazolo[1,5-a]pyrazin-2-yl)-7-(1-methyloctahydro-5H-pyrrolo[3,2-c]pyridin-5-yl)-4H-pyrido[1,2-a]pyrimidin-4-one]	210 to 212	**** (an EC1.5x≤0.3 μM is indicated by four stars (****))	**** (a fold increase between >1.5 and ≤1.65 is indicated by four stars (****))	< 0.1
CCN1CCC(c2ccc3nc(-c4ccc5c(cnn5C)c4)cc(=O)n3c2)CC1 [Compound 604, 7-(1-ethylpiperidin-4-yl)-2-(1-methyl-1H-indazol-5-yl)-4H-pyrido[1,2-a]pyrimidin-4-one]	184 to 186	**** (an EC1.5x≤0.3 μM is indicated by four stars (****))	***** (a fold increase >1.65 is indicated by five stars (*****))	0.3 to 1
Cn1ncc2cc(-c3cc(=O)n4cc(C5CCN(CCO)CC5)ccc4n3)ccc21 [Compound 605, 7-[1-(2-hydroxyethyl)piperidin-4-yl]-2-(1-methyl-1H-indazol-5-yl)-4H-pyrido[1,2-a]pyrimidin-4-one]	204 to 206	*** (an EC1.5× between >0.3 μM and ≤1 μM is indicated by three stars (***))	***** (a fold increase >1.65 is indicated by five stars (*****))	0.3 to 1
Cn1cc2cc(-c3cc(=O)n4cc(C5CCNCC5)ccc4n3)ccc2n1 [Compound 606, 2-(2-methyl-2H-indazol-5-yl)-7-(piperidin-4-yl)-4H-pyrido[1,2-a]pyrimidin-4-one]	194 to 196	** (an EC1.5× between >1 μM and ≤3 μM is indicated by two stars (**))	**** (a fold increase between >1.5 and ≤1.65 is indicated by four stars (****))	< 0.1
Cc1cn2nc(-c3cc(=O)n4cc(N5CCC(NCCO)CC5)cc(C)c4n3)cc2c(C)n1 [Compound 609, 2-(4,6-dimethylpyrazolo[1,5-a]pyrazin-2-yl)-7-{4-[(2-hydroxyethyl)amino]piperidin-1-yl}-9-methyl-4H-pyrido[1,2-a]pyrimidin-4-one]	221 to 232	**** (an EC1.5x≤0.3 μM is indicated by four stars (****))	***** (a fold increase >1.65 is indicated by five stars (*****))	< 0.1
CNC1CCN(c2cc(C)c3nc(-c4cc5c(C)nc(C)cn5n4)cc(=O)n3c2)CC1 [Compound 610, 2-(4,6-dimethylpyrazolo[1,5-a]pyrazin-2-yl)-9-methyl-7-[4-(methylamino)piperidin-1-yl]-4H-pyrido[1,2-a]pyrimidin-4-one]	218 to 227	**** (an EC1.5x≤0.3 μM is indicated by four stars (****))	***** (a fold increase >1.65 is indicated by five stars (*****))	< 0.1
Cc1cn2nc(-c3cc(=O)n4cc(N5CCC(NC(C)C)CC5)cc(C)c4n3)cc2c(C)n1 [Compound 611, 2-(4,6-dimethylpyrazolo[1,5-a]pyrazin-2-yl)-9-methyl-7-[4-(propan-2-ylamino)piperidin-1-yl]-4H-pyrido[1,2-a]pyrimidin-4-one]	215 to 225		*** (a fold increase between >1.35 and ≤1.5 is indicated by three stars (***))	0.3 to 1
Cn1cc2cc(-c3cc(=O)n4cc(C5CCN(CCO)CC5)ccc4n3)ccc2n1 [Compound 613, 7-[1-(2-hydroxyethyl)piperidin-4-yl]-2-(2-methyl-2H-indazol-5-yl)-4H-pyrido[1,2-a]pyrimidin-4-one]	170 to 172	**** (an EC1.5x≤0.3 μM is indicated by four stars (****))	***** (a fold increase >1.65 is indicated by five stars (*****))	< 0.1

Further lines, with some results ahead:

melting point [°C]	SMILES	EC1.5x for Smn protein expression [1]	maximum fold (Fold) increase of Smn protein [1]	EC (1.5-fold increase) [2] [µM]
282 to 284	Cc1cn2cc(-c3cc(=O)n4cc(C5CCNCC5)ccc4n3)cc(C)c2n1 [Compound 607, 2-(2,8-dimethylimidazo[1,2-a]pyridin-6-yl)-7-(piperidin-4-yl)-4H-pyrido[1,2-a]pyrimidin-4-one]	**** (an EC1.5x≤0.3 μM is indicated by four stars (****))	***** (a fold increase >1.65 is indicated by five stars (*****))	< 0.1
202 to 204	CCN1CCC(c2ccc3nc(-c4ccc5nn(C)cc5c4)cc(=O)n3c2)CC1 [Compound 612, 7-(1-ethylpiperidin-4-yl)-2-(2-methyl-2H-indazol-5-yl)-4H-pyrido[1,2-a]pyrimidin-4-one]	**** (an EC1.5x≤0.3 μM is indicated by four stars (****))	***** (a fold increase >1.65 is indicated by five stars (*****))	< 0.1
200 to 202	Cc1cn2cc(-c3cc(=O)n4cc(C5CCN(C)CC5)ccc4n3)cc(C)c2n1 [Compound 614, 2-(2,8-dimethylimidazo[1,2-a]pyridin-6-yl)-7-(1-methylpiperidin-4-yl)-4H-pyrido[1,2-a]pyrimidin-4-one]	**** (an EC1.5x≤0.3 μM is indicated by four stars (****))	***** (a fold increase >1.65 is indicated by five stars (*****))	< 0.1
202 to 204	CCN1CCC(c2ccc3nc(-c4cc(C)c5nc(C)cn5c4)cc(=O)n3c2)CC1 [Compound 615, 2-(2,8-dimethylimidazo[1,2-a]pyridin-6-yl)-7-(1-ethylpiperidin-4-yl)-4H-pyrido[1,2-a]pyrimidin-4-one]	**** (an EC1.5x≤0.3 μM is indicated by four stars (****))	**** (a fold increase between >1.5 and ≤1.65 is indicated by four stars (****))	< 0.1
